The structures appear in SMILES notation. “Also recorded” adds a separate entry of the source.

For the first assay, the target named is protein kinase. Nature of the assay: HTS ATP-utilizing enzyme assay, off-chip mobility-shift format (Caliper HTS 250). The format is biochemical, human. The conditions noted are these: kinase(s) for which the compound exhibits protein kinase inhibitory activity; test compound 10 μM; active = greater than three-sigma from the mean activity of inactive compounds. In outline: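 Single-point screen at 10 μM compound in HEPES pH 7.5 buffer with Triton X-100 and BSA, 2.5 h at 20–22 °C. Substrate-to-phosphopeptide ratio measured by off-chip microfluidic mobility shift; EDTA wells as 100% and DMSO wells as 0% control, hits called at three-sigma limits.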
In the case of `Cc1cccc(NC(=O)CSc2nnc(-c3ccc(O)cc3)n2-c2ccccc2)c1C`, the Kinase result is “MSK2”. Consider `CCOC(=O)c1c(NC(=O)CSc2nnc(-c3ccccc3O)n2-c2ccc(C)cc2)sc(C(C)=O)c1C`, for which the Kinase entry is listed as “LCK”. Same read-out and setting: next, `CCn1c(CNc2ccc(OC)cc2)nnc1SCC(=O)Nc1ccccc1C(F)(F)F`: “FYN and PDGFRR-α and FLT-3”; `CCn1c(S)nnc1CNc1cccc(C(F)(F)F)c1` [4-ethyl-5-((3-(trifluoromethyl)phenylamino)methyl)-4H-1,2,4-triazole-3-thiol]: “GSK3-α”.

With `COc1ccccc1-n1c(SCC(=O)Nc2ccc3sc(C)nc3c2)nnc1-c1ccccc1O`, the Kinase result is “CDK1”. Take `Cc1ccc(NCc2nnc(SCC(=O)Nc3cccc(O)c3)n2Cc2ccco2)c(C)c1`: the Kinase result is given as “CHEK2”. Same read-out and setting: next, `CCn1c(CNc2cccc(Cl)c2)nnc1SCC(=O)Nc1ccc(C(C)=O)cc1`: “CDK1”; `Cc1ccc(NCc2nnc(SCC(=O)OC3CCCCC3)n2-c2ccccc2)cc1Cl`: “PAK2 and CHEK1”; `O=C(CSc1nnc(-c2cccnc2)n1-c1ccccc1)CC(=O)Nc1ccccc1`: “AURORA-A”.

On to `COc1ccc(NC(=O)CSc2nnc(-c3ccccc3O)n2-c2ccc(C)cc2)c(OC)c1`, for which the Kinase entry is “MSK2 and CDK1”. Same read-out and setting: next, `Cn1c(S)nnc1C1CCCCC1` [5-cyclohexyl-4-methyl-4H-1,2,4-triazole-3-thiol]: “AKT1”; `CCn1c(SCC(=O)O)nnc1-c1cc2c(C)nn(-c3ccccc3)c2s1`: “FYN”; `NC(=O)CSc1nnc(-c2ccc(NS(=O)(=O)c3ccccc3)cc2)n1-c1ccccc1`: “AURORA-A”. Consider `Cn1c(SCC(=O)Nc2nc3c(s2)CCCC3)nnc1C1CC1`, for which the Kinase result is on record as “CDK2-cyclinE”. For `Cc1nnc(SCC(=O)N2c3ccccc3Sc3ccccc32)[nH]1` [2-(5-methyl-4H-1,2,4-triazol-3-ylthio)-1-(10H-phenothiazin-10-yl)ethanone], the Kinase result is “MAPKAPK-2 and CDK2-cyclinE and LCK”. Still for that read-out and setting: in the case of `O=C(CSc1nnc(-c2ccc(O)cc2)n1Cc1ccccc1)N1CCCCC1` it was “GSK3-α; also recorded: GSK3-β”. Still for that read-out and setting: in the case of `CCOc1ccc2nc(NC(=O)CSc3nnc(-c4ccncc4)n3Cc3ccco3)sc2c1` it was “GSK3-α and AKT1”; in that of `O=C(CSc1nncn1-c1cccnc1)Nc1ccccc1[N+](=O)[O-]` [N-(2-nitrophenyl)-2-(4-(pyridin-3-yl)-4H-1,2,4-triazol-3-ylthio)acetamide], “FYN”; in that of `N#CCSc1nnc(COc2cccc3ccccc23)n1Cc1ccccc1`, “CDK1 and CHEK2”.

With `CN(C)c1cccc(OCc2nnc(S)n2-c2ccccc2)c1` [5-((3-(dimethylamino)phenoxy)methyl)-4-phenyl-4H-1,2,4-triazole-3-thiol], the Kinase result was “GSK3-α”. On the same count and under the same terms, next, `O=C(CSc1nnc(-c2ccc(O)cc2)n1Cc1ccco1)c1ccccc1`: “GSK3-β and GSK3-α and MSK2”. Same read-out and setting: next, `CCN(CC)C(=O)CSc1nnc(-c2ccc(S(=O)(=O)N3CCCCCC3)cc2)n1CC`: “AURORA-A”. Turning to `COC(=O)c1ccccc1NC(=O)CSc1nnc(-c2ccc(O)cc2)n1Cc1ccccc1`, the Kinase entry was “AKT3 and GSK3-β and GSK3-α”. The same measure, in the same setting: in the case of `COc1ccc(N2CCN(C(=O)CSc3nnc(-c4cc5ccccc5cc4O)n3C)CC2)cc1` it was “DAPK1”; in that of `O=C(CSc1nnc(-c2ccco2)[nH]1)c1ccc(O)c(O)c1` [1-(3,4-dihydroxyphenyl)-2-(5-(furan-2-yl)-4H-1,2,4-triazol-3-ylthio)ethanone], “FYN and PDGFRR-α and FLT-3”; in that of `COc1cccc(-n2c(SCC(=O)NC(C)(C)C)nnc2-c2cccnc2)c1`, “AURORA-A”.

Regarding `Cc1ccc(-n2c(S)nnc2-c2ccccc2O)cc1` [2-(5-mercapto-4-p-tolyl-4H-1,2,4-triazol-3-yl)phenol], the Kinase result is recorded as “AURORA-A”.

As for `Cn1c(SCC(=O)Nc2cccc(C(F)(F)F)c2)nnc1-c1ccc(O)cc1`, the Kinase entry is “GSK3-β and SRC and GSK3-α”. As to `O=C(CSc1nnc(-c2ccc(O)cc2)n1Cc1ccccc1)c1ccccc1`, the Kinase result was “GSK3-α”. Turning to `O=C(CSc1nnc(-c2ccccc2O)n1Cc1ccccc1)Nc1cccc(I)c1`, the Kinase entry is listed as “SYK”.

In the case of `COc1ccc(-c2nnc(SCC(=O)N3CCOCC3)n2-c2ccccc2)cc1`, the Kinase entry was “INSR and PRAK”.

Consider `Cn1c(SCC(=O)CC(=O)Nc2ccccc2)nnc1-c1ccc(O)cc1`, for which the Kinase result is recorded as “AURORA-A”. `COc1ccccc1-n1c(SCC(=O)O)nnc1-c1cccnc1`: the Kinase entry is on record as “AURORA-A”. As to `CNC(=O)CSc1nnc(COc2ccccc2)n1Cc1ccccc1`, the Kinase result is given as “FYN”.

In the case of `O=C(O)CSc1nnc(-c2ccc(Cl)c(Cl)c2)[nH]1` [2-(5-(3,4-dichlorophenyl)-4H-1,2,4-triazol-3-ylthio)acetic acid], the Kinase entry is on record as “GSK3-α; also recorded: GSK3-B β; also recorded: AURORA-A”.

Take `COc1ccc(-n2c(Cc3ccccc3)nnc2SCC(=O)Nc2ccccc2)cc1`: the Kinase result was “CHEK2”. Regarding `COc1ccc(-n2c(COc3cccc(C)c3)nnc2SC(C)C(=O)O)cc1` (stereo not drawn), the Kinase entry is reported as “AURORA-A”.

Still in this assay, the particulars now being: test compound 10 μM; active = activity greater than three-sigma from the mean of the predominately inactive population for that enzyme.
`O=C(CSc1nnc(-c2cccnc2)n1Cc1ccccc1)NNC(=O)c1ccc(Br)cc1`: the “protein kinase against which the compound exhibits inhibitory activity (Table 3)” value was “PDGFRR-α; also recorded: AURORA-A”. For `CSc1nnc(-c2ccc(O)cc2)n1-c1ccccc1` [4-(5-(methylthio)-4-phenyl-4H-1,2,4-triazol-3-yl)phenol], the “protein kinase against which the compound exhibits inhibitory activity (Table 3)” value is “GSK3-β; also recorded: GSK3-α; also recorded: CDK2-cyclinA”. Consider `CCc1nnc(SCc2ccccc2)n1Cc1ccc(Cl)c(Cl)c1`, for which the “protein kinase against which the compound exhibits inhibitory activity (Table 3)” value is on record as “GSK3-α; also recorded: GSK3-β; also recorded: AURORA-A”.

For the molecule `Clc1cccc(-c2nnc(SCc3ccccc3)[nH]2)c1` [3-(benzylthio)-5-(3-chlorophenyl)-4H-1,2,4-triazole], the “protein kinase against which the compound exhibits inhibitory activity (Table 3)” value was “AURORA-A; also recorded: c-TAK1; also recorded: FLT-3”.

Take `CCOC(=O)c1ccc(CSc2nnc(-c3ccc(OC(F)(F)F)cc3)[nH]2)o1`: the “protein kinase against which the compound exhibits inhibitory activity (Table 3)” value was “FLT-3; also recorded: GSK3-β”. Same read-out and setting: in the case of `Cc1nnc(SCc2ccccc2)n1Cc1ccccc1` [4-benzyl-3-(benzylthio)-5-methyl-4H-1,2,4-triazole] it was “GSK3-β; also recorded: GSK3-α”; in that of `CCOCCSc1nnc(-c2cccc(C)c2)[nH]1`, “AURORA-A; also recorded: FLT-3; also recorded: GSK3-β”.

For the molecule `Cc1ccc(C(=O)NNC(=O)CSc2nnc(COc3ccc(C#N)cc3)n2-c2ccccc2)cc1`, the “protein kinase against which the compound exhibits inhibitory activity (Table 3)” value was “LCK”.

Take `CCc1nnc(SCc2ccccc2)n1Cc1ccc2c(c1)OCO2` [4-(benzo[d][1,3]dioxol-5-ylmethyl)-3-(benzylthio)-5-ethyl-4H-1,2,4-triazole]: the “protein kinase against which the compound exhibits inhibitory activity (Table 3)” value is “GSK3-β; also recorded: GSK3-α”. On the same count and under the same terms, next, `COc1cccc(OCc2nnc(SC)n2C)c1` [3-((3-methoxyphenoxy)methyl)-4-methyl-5-(methylthio)-4H-1,2,4-triazole]: “AURORA-A”. On the same count and under the same terms, next, `Cn1c(SCc2ccc(Cl)c(Cl)c2)nnc1-c1ccc(Cl)cc1` [3-(4-chlorophenyl)-5-(3,4-dichlorobenzylthio)-4-methyl-4H-1,2,4-triazole]: “PRAK and FYN”; `COCCCn1c(SCC(=O)NN(O)C(=O)c2ccccc2)nnc1-c1ccncc1`: “AURORA-A”; `O=C(O)CCSc1nnc(-c2ccc(O)cc2)n1-c1cccc(Cl)c1`: “GSK3-β; also recorded: GSK3-α”. The same measure, in the same setting: in the case of `CCn1c(SCc2cc(=O)[nH]c3ccccc23)nnc1-c1cc2ccccc2cc1O` it was “AURORA-A”; in that of `CCn1c(SCC(=O)NNC(=O)C2CCCCC2)nnc1-c1ccncc1`, “AURORA-A”; in that of `N#Cc1ccccc1CSc1nnc(-c2ccc(OC(F)(F)F)cc2)[nH]1`, “AURORA-A”.

For the molecule `C(=C\c1ccccc1)/CSc1nnc(-c2ccncc2)n1-c1ccccc1` [(E)-4-(5-(cinnamylthio)-4-phenyl-4H-1,2,4-triazol-3-yl)pyridine], the “protein kinase against which the compound exhibits inhibitory activity (Table 3)” value was “GSK3-β and GSK3-α and MSK1”. On the same count and under the same terms, next, `c1ccc(CCSc2nnc(-c3cccs3)[nH]2)cc1` [3-(phenethylthio)-5-(thiophen-2-yl)-4H-1,2,4-triazole]: “AURORA-A; also recorded: FLT-3”; `CCC(c1ccccc1)c1nnc(SCc2ccccc2)n1CCc1ccc(C)cc1` (stereo not drawn) [3-(benzylthio)-4-(4-methylphenethyl)-5-(1-phenylpropyl)-4H-1,2,4-triazole]: “c-TAK1”. Take `c1csc(-c2nnc(SCCN3CCOCC3)[nH]2)c1` [4-(2-(5-(thiophen-2-yl)-4H-1,2,4-triazol-3-ylthio)ethyl)morpholine]: the “protein kinase against which the compound exhibits inhibitory activity (Table 3)” value is “AURORA-A; also recorded: GSK3-β; also recorded: GSK3-α”. On to `Cc1cc(C)nc(SCc2nnc(SCC(=O)NNC(=O)c3ccccc3O)n2C)n1`, for which the “protein kinase against which the compound exhibits inhibitory activity (Table 3)” value was “FYN and SRC and FLT-3”. As to `CCC(c1ccccc1)c1nnc(SCc2ccc(C(=O)OC)cc2)[nH]1` (stereo not drawn) [methyl 4-((5-(1-phenylpropyl)-4H-1,2,4-triazol-3-ylthio)methyl)benzoate], the “protein kinase against which the compound exhibits inhibitory activity (Table 3)” value is given as “FLT-3”. Still for that read-out and setting: next, `CN(C)CCCSc1nnc(-c2cccs2)[nH]1` [N,N-dimethyl-3-(5-(thiophen-2-yl)-4H-1,2,4-triazol-3-ylthio)propan-1-amine]: “c-TAK1; also recorded: AURORA-A; also recorded: GSK3-α”.

Values taken from US20050288347A1, “Certain triazole-based compounds, compositions, and uses thereof” (priority 2004, published 2005).
